Assay results: patent US10899723B2, “Heterocyclic containing cyclopropyl FXR modulators” (Hepagene Therapeutics (HK) Limited, priority 2016, dated 2021)

Legend:
[1] = target: T1, FXR (Homo sapiens, UniProt Q96RI1); assay: FXR Transactivation Assay (pBIND-FXR / pGL4.35 luciferase reporter in HEK293T); type: cell-based; conditions: HEK293T cells
T1 construct: expressed in transfected cells; host or cells: HEK293T
T1 sequence (Q96RI1 1-486): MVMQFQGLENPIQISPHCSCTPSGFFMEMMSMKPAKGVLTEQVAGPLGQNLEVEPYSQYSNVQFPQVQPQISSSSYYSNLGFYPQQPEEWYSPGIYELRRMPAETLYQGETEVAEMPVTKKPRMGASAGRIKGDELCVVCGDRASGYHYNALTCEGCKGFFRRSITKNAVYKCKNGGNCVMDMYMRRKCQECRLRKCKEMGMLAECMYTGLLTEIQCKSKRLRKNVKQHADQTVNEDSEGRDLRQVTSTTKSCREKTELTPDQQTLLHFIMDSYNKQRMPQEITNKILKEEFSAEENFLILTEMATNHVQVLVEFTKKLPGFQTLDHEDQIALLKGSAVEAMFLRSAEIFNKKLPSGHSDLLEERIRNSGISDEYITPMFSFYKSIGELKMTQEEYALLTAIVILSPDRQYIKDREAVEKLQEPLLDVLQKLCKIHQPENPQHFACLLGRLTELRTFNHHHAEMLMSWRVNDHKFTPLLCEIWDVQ
Protocol: FXR Transactivation Assay
pGL4.35 [luc2P/9XGAL4 UAS/Hygro]
DMEM medium, high glucose
Fetal Bovine Serum (FBS, heat-inactivated)
Penicillin-Streptomycin (10000 U/ml, 100 ml)
DMEM, High Glucose, HEPES, no Phenol Red
Opti-MEM® I Reduced Serum Medium
Steady-Glo™ Luciferase Assay System
TransIT-293 Transfection Reagent
GW4064 as a positive control
(§1) • 1. Hek293T cells were plated at 1.1*10^6/ml into a 100 mm dish. • 2. Cells were transfected with 8.4 μg of pBind-FXR, 1.26 μg of the reporter vector pGL4.35 (Promega). Cells were incubated at 37° C. under 5% CO2 atmosphere. • 3. All of compounds were 3-fold serial diluted from 10 mM stock for 10 doses in DMSO. • 4. Transfer compound dilutions into 384 well assay plates using liquid workstation. • 5. Seed 25 ul HEK293T cells into 384 well assay plate (prepared step 4) at 0.6*10^5/ml. Cells were incubated at 37° C. under 5% CO2 atmosphere overnight. • 6. Add 25 ul steady-Glo™ Luciferase Assay Reagent into each well of 384-well assay plate. • 7. Record the luminescence value on Envision 2104 plate reader. • 8. Calculate EC50 by fitting % Activity values and log of compound concentrations to nonlinear regression (dose response−variable slope) with Graphpad 5.0. FXR Coactivator Assay Reagents: LanthaScreen™ TR-FRET Farnesoid X Receptor Coactivator Assay GW4064 as a positive control Process: • 1. All of compounds were 3-fold serial diluted from 10 mM stock for 10 doses in DMSO. • 2. Dilute each 100× agonist serial dilution to 2× using Complete Coregulator buffer G. • 3. Transfer 10 μl of each of the 2× agonist serial dilutions to 384 well assay plates. • 4. […] Incubate at room temperature protected from light. • 7. Read the plate at wavelengths of 520 nm and 495 nm on Envision 2104 plate reader. • 8. Calculate the TR-FRET ratio by dividing the emission signal at 520 nm by the emission signal at 495 nm. • 9. Calculate EC50 by fitting % Activity values and log of compound concentrations to nonlinear regression (dose response−variable slope) with Graphpad 5.0.

[2] = target: T2, FXR-LBD (Homo sapiens, UniProt Q96RI1); assay: FXR Coactivator Assay (LanthaScreen TR-FRET); type: biochemical
T2 construct: Add 5 μl of 4×FXR-LBD to 384 well assay plates; purchased
T2 sequence (Q96RI1 262-486 limits assumed): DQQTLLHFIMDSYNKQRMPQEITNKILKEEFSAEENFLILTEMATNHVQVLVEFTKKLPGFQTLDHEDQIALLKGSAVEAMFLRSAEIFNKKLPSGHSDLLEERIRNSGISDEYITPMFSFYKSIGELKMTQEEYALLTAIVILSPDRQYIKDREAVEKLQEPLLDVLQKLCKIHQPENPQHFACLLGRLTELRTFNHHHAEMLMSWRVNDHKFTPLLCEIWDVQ
Protocol: as §1

EC50 [1] [nM] | EC50 [2] [nM] | Structure (SMILES)
10 to 100 | 10 to 100 | CC1(c2ccc(OCc3c(-c4c(Cl)cccc4Cl)noc3C3CC3)cc2Cl)CC1c1cncc(C(=O)O)c1 (centres unmarked) [VI-05]
401 to 5000 | 10 to 100 | CC(C)c1onc(-c2c(Cl)cccc2Cl)c1COc1ccc(C2(C#N)CC2c2ccc(C(=O)O)cc2)c(Cl)c1 (centres unmarked) [VII-01]
101 to 400 | 10 to 100 | CC(C)c1onc(-c2c(Cl)cccc2Cl)c1COc1ccc(C2(C#N)CC2c2cccc(C(=O)O)c2)c(Cl)c1 (centres unmarked) [VII-02, 3-[2-(2-Chloro-4-[[3-(2,6-dichlorophenyl)-5-(propan-2-yl)-1,2-oxazol-4-yl]methoxy]phenyl)-2-cyanocyclopropyl] benzoic Acid]
10 to 100 | 10 to 100 | N#CC1(c2ccc(OCc3c(-c4c(Cl)cccc4Cl)noc3C3CC3)cc2Cl)CC1c1cccc(C(=O)O)c1 (centres unmarked) [VII-03, 3-[2-(2-Chloro-4-[[5-cyclopropyl-3-(2,6-dichlorophenyl)-1,2-oxazol-4-yl]methoxy]phenyl)-2-cyanocyclopropyl] benzoic Acid]
